Experiments:
[1] = Systemic off-target effects: organ histology and organ function; type: in vivo, mice
Description: FIG. 13. KBU2046 treatment is not associated with systemic off-target effects. […] After 35 days of treatment, the following organs were harvested at necropsy, and stained with H&E (alternative staining methods as indicated): heart, lungs, esophagus, stomach, colon, small intestine, liver (Trichrome staining), kidneys (Trichrome staining), adrenals, bladder, prostate, spleen, pancreas, brain, testes, and bone marrow and peripheral blood (Giemsa staining). Organs were examined for damage using a semi-quantitative histological scoring system (Knodell et al., 1981; herein incorporated by reference in its entirety). […] Changes in the liver observed in control mice were not increased by KBU2046 treatment. […] On day 8 and 14, all critical organs were weighed, and the following parameters measured in blood: cholesterol, triglycerides, alanine aminotransferase (ALT), aspartate aminotransferase (AST), total bilirubin, glucose, phosphorus, total protein, calcium, blood urea nitrogen (BUN), creatinine, albumin, Na, K, Cl, white blood cells (with differential), red blood cells, hemoglobin, platelets.
Orthotopic implantation of human PCa cells and quantification of distant metastasis was performed as described (Pavese et al., 2013; herein incorporated by reference in its entirety). […] Quantification of KBU2046 plasma concentrations was performed by LCMS. […]

[2] = system: phosphorylated Ser226 on HSP90β in PC3 cells; test: PhosphoScan LC-MS/MS of BL4176 immunoprecipitate; type: cell-based, human; conditions: 10 μM, 3 days, then TGFβ
Description: FIG. 16. Identification of the 83 kDa band using a proteomic approach. PC3 cells were pre-treated with 10 μM KBU2046 or vehicle (control) for 3 days, then treated with TGFβ for 1 hr, and the resultant cell lysates were subjected to immunoprecipitation with BL4176 (Kinoview® phospho-motif antibody). Proteins bound in this manner were analyzed using PhosphoScan™ technology. This identified 483 unique phosphopeptide assignments from 306 parent proteins, with a mean false discovery rate of 0.30% (estimated via Sorcerer search of composite human database of forward and reverse protein entries). Only proteins where the average values for treatment and control were each 3 times that of background were considered. Further, it was required that each of the replicate values (used to calculate the average) to be >/=2.5 fold above background. According to these parameters, there were 19 phospho-proteins whose expression decreased in cells treated with KBU2046, compared to control.
Screening for changes in the kinome induced by KBU2046 were evaluated with the Kinoview™ assay system. Proteins pulled down by motif-directed Kinoview™ antibody were identified through PhosphoScan™ technology, using LTQ-Orbitrap LC-MS/MS analysis coupled to a SEQUEST/Sorcerer data analysis suite (Lundgren et al., 2009; herein incorporated by reference in its entirety). […]

[3] = system: human PCa PC3-M cell orthotopic implants; test: Orthotopic murine model of human PCa metastasis; type: in vivo, mice; conditions: lung metastasis, KBU2046 in chow, dose-dependent
Description: FIGS. 3A-D. KBU2046 inhibits cancer metastasis and prolongs life. (A, B) Inhibition of PCa metastasis. Cohorts of athymic mice bearing human PCa PC3-M cell orthotopic implants (A), or of non-tumor bearing athymic mice (B), were treated with KBU2046 incorporated into chow, and resultant lung metastasis (A) or plasma KBU2046 concentration (B) measured. Values are the mean±SEM. The relationship between dose and metastasis was evaluated by two-sided ANOVA (A). (C) Comprehensive characterization of KBU2046 phannacokinetics. CD1 mice were dosed with 100 mg KBU2046/kg via oral gavage or intravenous injection (iv), and blood collected at the indicated time points. The dotted horizontal line denotes a concentration of 24 nM, which was the concentration of KBU2046 measured in the blood of mice whose metastasis were suppressed by 92% (A, B). […]
Orthotopic implantation of human PCa cells and quantification of distant metastasis was performed as described (Pavese et al., 2013; herein incorporated by reference in its entirety). […] Quantification of KBU2046 plasma concentrations was performed by LCMS. […] Critical organs were examined for structural damage using a semi-quantitative histological scoring system (Knodell et al., 1981; herein incorporated by reference in its entirety), while their function was assessed by comprehensive clinical laboratory testing of blood samples. […]

human prostate cells = test: Three day cell growth inhibition, prostate cells; type: cell-based; conditions: 3 days
[4] = system: osteonectin expression in PC3 cells; test: Gene array screen for differentially expressed genes; type: cell-based, human
Description: FIGS. 21A-C. KBU2046 disrupts osteonectin expression. PC3 cells were treated +/− with 10 uM KBU2046×3 d (A), or were transfected with siRNA to osteonectin (siOST) or non-targeting (siCO) (B), and osteonectin/GAPDH expression measured by qRT/PCR. (C) PC3 cells were transfected with siOST, siCO, treated with +/−KBU2046, and cell invasion measured.
Having identified inhibition of Ser^226 phosphorylation as the molecular target of KBU2046 for inhibition of cell motility, experiments were conducted during development of embodiments herein to identify downstream regulators of its action. PC3 cells with KBU2046, and screened for differentially expressed genes using two different SABiosciences (Qiagen) gene array platforms: Human Metastasis Array and Human Extracellular Matrix and Adhesion Molecule Array. […] No other significant effects were identified. Separate experiments confirmed differential expression by gene-specific qRT/PCR (FIG. 21A). […] Clinically, overexpression of osteonectin in primary PCa has been associated with the development of metastasis to bone.

Question: With `O=C1c2ccccc2OCC1c1ccc(F)cc1` (racemic) [KBU2046, 4′-fluoroisoflavanone] as the compound, how does the “organ damage by histologic examination” value ([1]; Balb/c athymic mice, 35 days of treatment) read?
Answer: The value was “No organ damage was observed”.

Question: What about the “organ weights and blood chemistry/hematology parameters” value ([1]; CD1 mice, single iv 15, 75 or 125 mg/kg, day 8 and 14) of the same compound?
Answer: Its value is “No abnormal alterations in any of these parameters were observed”.

Question: What about the “decrease in abundance of phosphorylated Ser226 on HSP90β” value [2] of the same compound?
Answer: Its value is 6.6 fold.

Question: And the decrease in metastasis [3]?
Answer: The decrease in metastasis was “up to 92%”.

Question: And the “toxicity to human prostate cells (cell growth inhibition)” value (human prostate cells)?
Answer: The value was “not toxic”.

Question: And the “suppression of osteonectin expression” value [4]?
Answer: The value was 2.0 fold.
